One data set has as its system L 1210/cis-DDP cell line. To be noted: for IC50: read-out: IC50 (Concentration producing 50% of inhibition), L1210/cis-DDP, Mean ±SD.
The next data set deals with P388 leukemic cells. The data set can be described thus: In vivo compared antitumor activity assay in mice infected with P388 leukemic cells. To be noted: single administration.
Data set [1] has as its system L 1210 murine leukemia cell line. The data set can be described thus: 24 hours-thymidine uptake cytotoxicity, continuous exposition to the drugs. It is filed as cell-based. The settings on record: for IC50: L1210, Mean ±SD, read-out: IC50 (Concentration producing 50% of inhibition).
The conditions of data set [2]: mouse, in vivo, ip.
For the next data set, the system named is Jurkat human cells. The data set can be described thus: In vitro cytotoxic activity. The class given is cell-based. The settings on record: at least comparable with cis-DDP.
Data set [3] in a line: Acute intraperitoneal toxicity and renal toxicity in mice. The settings on record: acute intraperitoneal administration, dissolved into 0.9% aqueous NaCl.
Data set [4] relates to K562 human erhytroleukemic cells. The data set can be described thus: In vitro cytotoxic activity. The class given is cell-based. To be noted: at least comparable with cis-DDP.
Data set [5] relates to P388 murine leukemic cells. In words: In vitro cytotoxic activity. The class given is cell-based. To be noted: at least comparable with cis-DDP.

Turning to `N.N.[Cl][Pt][Cl]` [cis-DDP, cis-platinum, reference compound], the values for the IC50 (with L 1210/cis-DDP cell line; in data set [1]) were 9600 ± 2800 nM and 840 ± 90 nM, respectively. Also, the “ILS (highest increase in life span)” value in the data set on P388 leukemic cells (8 mg/kg) was 75%. For the same compound, in the data set on P388 leukemic cells (decrease, 8 mg/kg (maximum tolerated dose)), the “percent body weight variation” value is listed as 10.6%.

By LD50 is commonly meant the dose expected to kill half of the subjects tested. Higher therefore signals lower toxicity. As for “cis-diamino-chloro-4-[diethylammoniumethoxycarbonylphenyl]amino-platinum (II)^+ bis-chloride monohydrate [cis-DPR]”, in data set [2], the “kidney damages (plasma BUN increase, examination of renal tubules)” value was “no evaluable kidney damages”. The “activity relative to cis-DDP (times greater, from IC50s)” value in the data set with L 1210/cis-DDP cell line (L 1210/cis-DDP cell line) is “about 10 times”. Further, the IC50 came out at 970 ± 170 nM with L 1210/cis-DDP cell line and 510 ± 80 nM in data set [1]. The cytotoxic activity entry (in the data set on Jurkat human cells; in data set [4]; in data set [5]) was “significant cytotoxyc activity” throughout. In data set [3], this compound had an LD50 of 39.3 mg/kg. Further, the “ILS (highest increase in life span)” value with P388 leukemic cells (21 mg/kg) is 75%. Also, the “percent body weight variation” value with P388 leukemic cells (increase, 21 mg/kg) worked out at 4.5%. Also, the “activity relative to cis-DDP (times more active)” value in data set [1] (parental L 1210 cell line) is recorded as “about 1.6 times”.
